Values joined by “and” are separate entries in the source; they are usually repeats but may differ in a detail not shown here. Equal entries are not always repeated. Where two headings read alike, the source gives them in different places.
Key:
AChE [1] = target: T1, AChE (Homo sapiens, UniProt P22303); assay: biochemical; conditions: for SI(AChE/BChE): selectivity index = IC50 (AChE)/IC50 (BChE)
Procedure: (§1) Butyrylthiocholine iodide and acetylthiocholine were utilized as substrates in BChE and AChE assays, respectively, where DTNB was served as indicator. All compounds were dissolved in MeOH. […] Blank assays were performed by replacing the enzyme (20 μL) with buffer and their absorbances were recorded for correction of the spontaneous lysis of the indicator or inherent color of the inhibitor.
Selectivity index (SI) for acetyl and butyryl cholinesterases was calculated as follow:SI(AChE/BChE) = IC50 (AChE)/IC50 (BChE)SI(BChE/AChE) = […]

BChE [2] = target: T2, BChE (Homo sapiens, UniProt P06276); assay: biochemical; conditions: for SI(BChE/AChE): selectivity index BChE/AChE
Procedure: as §1, with “inhibitor. […]” for “inhibitor.”

[3] = system: RPE1 (human immortalized retinal pigment epithelial cell line); assay: Antiproliferative/cytotoxicity MTT assay on normal cell line; type: cell-based; conditions: RPE-1, 72 h incubation, tested at 100, 50, 25 and 12.5 μM, read-out: IC50 against RPE1
Description: Antiproliferative properties of the synthesized agents 8a–l were considered against RPE1 (human immortalized retinal pigment epithelial cell line) normal cell line utilizing the standard MTT (tetrazolium salt) technique.[37]
The synthesized agents 8a–l were screened against RPE1 (human immortalized retinal pigment epithelial cell line) normal cell line to investigate their cytotoxicity by the standard mitochondrial dependent reduction of yellow MTT [3-(4,5-dimethylthiazol-2-yl)-2,5-diphenyl-tetrazolium bromide] to purple formazan technique.[37] Cells were suspended in DMEM in addition to 1% antibiotic–antimycotic mixture (10 000 μg mL^−1 potassium penicillin, 10 000 μg mL^−1 streptomycin sulfate and 25 μg mL^−1 amphotericin B), 10% fetal bovine serum and 1% L-glutamine at 37 °C, under 5% CO2 and 95% humidity. Cells were seeded at concentration of 30 000 cells per well in fresh complete growth medium in 96-well tissue culture microtiter plates for 24 h. […] 0.5% DMSO was used as negative control. Triplicate wells were prepared for each individual dose. After 72 h of incubation, medium was aspirated, 40 μl MTT salt (2.5 mg mL^−1) were added to each well and incubated for further 4 h at 37 °C. To stop the reaction and dissolve the formed crystals, 150 μL of 10% sodium dodecyl sulfate (SDS) in deionized water were added to each well and incubated overnight at 37 °C.
Data were collected as mean values for experiments performed in triplicates for each individual dose which had been measured by MTT assay. […] The percentage of cell survival was calculated according to the following equation. [drawing 1]
Statistical calculations for determination of the mean and standard error values were determined by SPSS 16 software.

AChE [4] = target: T1, AChE; assay: 2D-QSAR (BMLR, CODESSA-Pro) model, AChE inhibitors; conditions: observed minus estimated IC50
Description: (§2) The cholinesterase properties observed were undertaken by CODESSA-Pro software accessible for optimizing 2D-QSAR models.[39–41] This is useful for well understanding the bio-observations and identifying the parameters necessary for bio-potency. Three descriptor QSAR models were developed due to the AChE and BChE inhibitory properties of the synthesized dispiro-compounds 8a–l (ESI Tables S4–S9, Fig. S40 and S41, details of the QSAR descriptors are also mentioned in the ESI). ^† […]
(§3) Goodness of the QSAR models was supported by the comparative values of the correlation coefficient (R^2) with their cross validation of leave one-out (R^2cvOO) and leave many-out (R^2cvMO) [R^2 = 0.923, 0.979; R^2cvOO = 0.882, 0.936; R^2cvMO = 0.904, 0.956, for AChE and BChE models, respectively]. Standard deviation (s^2) and Fisher criteria (F) values of the models also support their goodness (s^2 = 0.026, 0.005; […]. Additionally, the correlations of the observed and predicted values “specially the high potent synthesized compounds” add good support for the attained models. […]
(§4) Molecular modeling studies
(§5) The synthesized dispiro[indoline-3,2'-pyrrolidine-3',3''-pyrrolidines] 8a‒l […]
(§6) 2D-QSAR modeling by CODESSA-Pro (comprehensive descriptors for structural and statistical analysis) software. Geometry of the compounds was initially optimized by AM1 technique using hyperChem 8.0 then, uploaded to CODESSA-Pro for final geometrical structure optimization by MOPAC.10‒12 CODESSA-Pro calculated 656 molecular descriptors (constitutional, topological, geometrical, charge-related, semi-empirical, thermodynamical, molecular-type, atomic-type and bond-type descriptors) for […]
(§7) the exported bio-active agents. Mathematical transformation of the experimental values […]
(§8) QSAR model. The best multi-linear regression (BMLR) technique was utilized which is a stepwise search for the best n-parameter regression equations (where n stands for the number of descriptors used), based on the highest R2 (squared correlation coefficient), R2cvOO (squared cross-validation “leave one-out, LOO” coefficient), R2cvMO (squared cross-validation “leave many-out up to 20% of the training set, LMO” coefficient), F (Fisher statistical significance criteria) values, and s2 (standard deviation). The QSAR up to 3-descriptor model describing the biological activity of the bio-active agents were generated (obeying the thumb rule of 4:1 which is the ratio between the data points and the number of QSAR descriptor).
(§9) Minimum (>0.1) bond order for atom C is an atomic type descriptor with the […]
(§10) why the higher descriptor value, the lower AChE inhibitory efficacy of the tested agent as […]
(§11) 2/SQRT(TMSA) (MOPAC PC) is a charge related descriptor with relatively high […]
(§12) . Compounds with high descriptor value predicted low AChE
(§13) 0.11715). HDCA2 (area weighed surface charge of hydrogen bonding donor atoms) can be calculated by equ. (1). 13
(§14) HDCA2 = D … .DtotH‒donor (1)
(§15) Where, standsSD for the solvent accessible surface area of H-bonding donor H atoms (selected by threshold charge), is the partialqD charge on H-bonding donor H atoms (selected by threshold charge) and is the totalStot solvent accessible molecular surface […]
(§16) Square root of surface area for atom C is also a charge related descriptor with […]
(§17) . For this reason, the higher descriptor value of […]

BChE [5] = target: T2, BChE; assay: 2D-QSAR (BMLR, CODESSA-Pro) model, BChE inhibitors; conditions: observed minus estimated IC50
Description: as §2, §3, §4, §5, §6, §7, §8, §9, §10, §11, §12, §13, §14, §15, §16, §17
partial positively and negatively charged surface area can be calculated by equs. (2) and […]
PPSA3 = A … .. (2)A∈{δA>0}
PNSA3 = A … ..A∈{δA>0} (3)
Where, is the positively/negativelySA charged solvent accessible atomic surface area and qA is the atomic partial charge.
ZX Shadow/ZX rectangle is a geometrical descriptor with the highest coefficient […]
. The higher descriptor value of […]
compounds 8c and 8e, respectively). Relative shadow areas of a molecule can be determined by equ. (4). 13
Where, C is contour of the projection of the molecule on the plane defined by two principal axes of the molecule (k = XY, XZ or YZ plane), , , = X • ν –x or yρ –y or zS(k) […]
Maximum atomic state energy for atom O is an atomic type descriptor. […]

[6] = 10 min incubation at 25 °C, read at 405 nm, read-out: IC50 of AChE (μM) ± SD
[7] = log transformation of the observed IC50, read-out: Observed log(IC50, μM), AChE (converted)
[8] = 10 min incubation at 25 °C, read at 405 nm, read-out: IC50 of BChE (μM) ± SD
[9] = log transformation of the observed IC50, read-out: Observed log(IC50, μM), BChE (converted)

T1 sequence (P22303 32-614): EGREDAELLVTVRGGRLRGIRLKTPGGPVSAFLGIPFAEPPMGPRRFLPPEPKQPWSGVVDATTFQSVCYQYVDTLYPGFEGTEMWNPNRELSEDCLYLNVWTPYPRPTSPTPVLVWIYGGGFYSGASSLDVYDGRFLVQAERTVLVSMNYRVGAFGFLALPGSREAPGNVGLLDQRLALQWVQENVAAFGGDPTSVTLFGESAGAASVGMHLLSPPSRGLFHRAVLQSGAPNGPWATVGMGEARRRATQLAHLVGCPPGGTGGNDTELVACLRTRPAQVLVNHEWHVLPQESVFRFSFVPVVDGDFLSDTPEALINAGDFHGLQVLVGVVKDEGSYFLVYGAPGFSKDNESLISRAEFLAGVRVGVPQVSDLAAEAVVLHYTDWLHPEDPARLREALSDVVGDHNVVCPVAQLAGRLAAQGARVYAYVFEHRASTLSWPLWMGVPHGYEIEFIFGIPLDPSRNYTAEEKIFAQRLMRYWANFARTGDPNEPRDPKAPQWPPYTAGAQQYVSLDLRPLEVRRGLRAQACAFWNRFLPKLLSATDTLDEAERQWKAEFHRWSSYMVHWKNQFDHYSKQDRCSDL
T2 sequence (P06276 29-602): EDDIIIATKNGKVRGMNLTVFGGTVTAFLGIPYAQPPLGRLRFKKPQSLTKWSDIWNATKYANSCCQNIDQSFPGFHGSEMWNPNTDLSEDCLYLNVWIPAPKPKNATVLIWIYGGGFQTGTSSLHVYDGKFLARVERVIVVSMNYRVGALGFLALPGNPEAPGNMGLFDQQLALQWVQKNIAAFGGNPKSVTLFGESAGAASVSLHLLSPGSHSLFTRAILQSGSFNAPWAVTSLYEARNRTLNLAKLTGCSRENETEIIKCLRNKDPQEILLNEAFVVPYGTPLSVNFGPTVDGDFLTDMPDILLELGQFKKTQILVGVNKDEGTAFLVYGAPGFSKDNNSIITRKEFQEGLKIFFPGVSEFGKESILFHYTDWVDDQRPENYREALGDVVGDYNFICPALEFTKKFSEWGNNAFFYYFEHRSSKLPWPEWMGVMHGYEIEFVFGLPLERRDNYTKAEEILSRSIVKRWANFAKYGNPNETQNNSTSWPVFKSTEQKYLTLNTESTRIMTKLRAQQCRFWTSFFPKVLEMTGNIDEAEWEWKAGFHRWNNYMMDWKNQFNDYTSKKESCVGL

Row | SMILES | IC50 (AChE [1]; [6]) [µM] | IC50 (AChE [1]; [7]) [µM] | SI(AChE/BChE) (AChE [1]) | IC50 (BChE [2]; [8]) | IC50 (BChE [2]; [9]) [µM] | SI(BChE/AChE) (BChE [2]) | IC50 [3] [µM] | Error (difference between observed and estimated property values), AChE BMLR-QSAR model (AChE [4]) [µM] | Error (difference between observed and estimated property values), BChE BMLR-QSAR model (BChE [5]) [µM]
1 | CN1CC(c2ccccc2)C2(CC(=O)N(c3ccccc3)C2=O)C12C(=O)Nc1ccccc12 (stereo not drawn) [Compound 8a, 1′-Methyl-1′′,4′-diphenyldispiro[indoline-3,2′-pyrrolidine-3′,3′′-pyrrolidine]-2,2′′,5′′-trione] | 117 | 117 | 1.43 | 81.8 µM | 81.8 | 0.70 | > 100 | -13.41 | 12.80
2 | CN1CC(c2ccccc2)C2(CC(=O)N(c3ccccc3)C2=O)C12C(=O)Nc1ccc(Cl)cc12 (stereo not drawn) [Compound 8b, 5-Chloro-1′-methyl-1′′,4′-diphenyldispiro[indoline-3,2′-pyrrolidine-3′,3′′-pyrrolidine]-2,2′′,5′′-trione] | 13.6 ± 0.62 | 13.6 | 0.32 | 42.5 µM and 42.4 µM | 42.5 | 3.12 | > 100 | 0.13 | -6.64
3 | COc1ccc2c(c1)C1(C(=O)N2)N(C)CC(c2ccccc2)C12CC(=O)N(c1ccccc1)C2=O (stereo not drawn) [Compound 8c, 5-Methoxy-1′-methyl-1′′,4′-diphenyldispiro[indoline-3,2′-pyrrolidine-3′,3′′-pyrrolidine]-2,2′′,5′′-trione] | 103 | 103 | 1.43 | 71.7 µM | 71.7 | 0.70 | > 100 | 18.50 | 7.44
4 | CN1CC(c2ccc(Cl)cc2)C2(CC(=O)N(c3ccccc3)C2=O)C12C(=O)Nc1ccc(Cl)cc12 (stereo not drawn) [Compound 8d, 5-Chloro-4′-(4-chlorophenyl)-1′-methyl-1′′-phenyldispiro[indoline-3,2′-pyrrolidine-3′,3′′-pyrrolidine]-2,2′′,5′′-trione] | 24.3 ± 4.08 | 24.3 | 1.14 | 21.3 µM | 21.3 | 0.88 | > 100 | 13.92 | -5.91
5 | COc1ccc(C2CN(C)C3(C(=O)Nc4ccc(Cl)cc43)C23CC(=O)N(c2ccccc2)C3=O)cc1 (stereo not drawn) [Compound 8f, 5-Chloro-4′-(4-methoxyphenyl)-1′-methyl-1′′-phenyldispiro[indoline-3,2′-pyrrolidine-3′,3′′-pyrrolidine]-2,2′′,5′′-trione] | 12.3 | 12.3 | 0.61 | 20.1 ± 0.16 µM | 20.1 | 1.64 | > 100 | 1.32 | 1.88
6 | CN1CC(c2ccccc2)C2(CC(=O)N(c3ccc(Cl)cc3)C2=O)C12C(=O)Nc1ccc(Cl)cc12 (stereo not drawn) [Compound 8i, 5-Chloro-1′′-(4-chlorophenyl)-1′-methyl-4′-phenyldispiro[indoline-3,2′-pyrrolidine-3′,3′′-pyrrolidine]-2,2′′,5′′-trione] | 39.4 | 39.4 | 1.12 | 35.1 µM | 35.1 | 0.89 | > 100 | -3.69 | -3.48
7 | CN1CC(c2ccc(Cl)cc2)C2(CC(=O)N(c3ccc(Cl)cc3)C2=O)C12C(=O)Nc1ccccc12 (stereo not drawn) [Compound 8j, 1′′,4′-Bis(4-chlorophenyl)-1′-methyldispiro[indoline-3,2′-pyrrolidine-3′,3′′-pyrrolidine]-2,2′′,5′′-trione] | 21 | 21 | 1.54 | 13.6 µM | 13.6 | 0.65 | > 100 | -0.80 | 1.51
8 | CN1CC(c2ccc(Cl)cc2)C2(CC(=O)N(c3ccc(Cl)cc3)C2=O)C12C(=O)Nc1ccc(Cl)cc12 (stereo not drawn) [Compound 8k, 5-Chloro-1′′,4′-bis(4-chlorophenyl)-1′-methyldispiro[indoline-3,2′-pyrrolidine-3′,3′′-pyrrolidine]-2,2′′,5′′-trione] | 13.9 | 13.9 | 1.36 | 10.2 ± 0.76 µM | 10.2 | 0.73 | > 100 | -0.82 | 1.09

Source: PMC9054546, “Synthesis and molecular modeling studies of cholinesterase inhibitor dispiro[indoline-3,2′-pyrrolidine-3′,3′′-pyrrolidines]” (RSC Advances, 2020)
